According to patent US8202865B2, “Oxadiazole derivatives” (Merck Serono SA, priority 2007, dated 2012):
Structures can show the parent of a compound that is named as a salt.

The compounds below were run against T1, S1P1 (Homo sapiens, UniProt P21453) (assay: 35S-GTPγS binding, S1P1 membranes). Settings: membranes from CHO cells expressing S1P1; 60 min 30° C.
T1 construct: expressed in transfected cells; host or cells: CHO cells (membranes)
Type: biochemical
Protocol: Receptor binding assay: Membranes were prepared from CHO cells expressing S1P1 or S1P3 for use in ligand and […] binding studies. Cells were suspended in 50 mM TRIS, pH 7.4, 2 mM EDTA, 250 mM Sucrose (buffer A) and 1× Complete protease inhibitor cocktail (Roche), and disrupted at 4° C. by N2 decompression using a cell disruption bomb (Parr Instrument). Following centrifugation at 1000 RPM for 10 min at 4° C., the supernatant was suspended in buffer A and centrifuged again at 19000 RPM for 60 min at 4° C. The pellet was then suspended in 10 mM HEPES, pH 7.4, 1 mM EDTA, 250 mM Sucrose (Buffer B), and 1× Complete EDTA-free protease inhibitor cocktail and homogenized using a potter. Membranes were flash frozen in liquid N2 and stored at −80° C. [33P]sphingosine 1-phosphate (3000 Ci/mmol; American Radiolabeled Chemicals, Inc.) was added to test compounds in DMSO. Membranes and WGA SPA beads (GE Healthcare) were added to give a final volume of 100 μl in 96-well plates with assay concentrations of 25 pM or 10 pM [33P]sphingosine 1-phosphate (respectively for S1P1 or S1P3), 50 mM HEPES, pH 7.5, 5 mM MgCl2, 100 mM NaCl, 0.4% fatty acid-free BSA, 1-5 μg/well of proteins and 100 μg/well of WGA SPA beads. Binding was performed for 60 min at RT on a shaker and bound radioactivity was measured on a PerkinElmer 1450 MicroBeta counter. Specific binding was calculated by subtracting remaining radioactivity in the presence of 1000-fold excess of unlabeled S1P. Binding data were analyzed using the GraphPad Prism program.
Measurements of ^35S-GTPγS Binding: Membranes (1 to 10 μg protein) prepared as described above, were incubated in 96-well Scintiplates (PerkinElmer) with test compounds diluted in DMSO, in 180 μl of 20 mM HEPES, pH 7.4, 10 mM MgCl2, 2 μg/well Saponin, 0.2% fatty acid free BSA (Assay buffer), 140 mM NaCl and 1.7 μM GDP. The assay was initiated with the addition of 20 μl of 1.5 nM [35S]-GTPγS (1100 Ci/mmol; GE Healthcare) in assay buffer. After 60 min incubation at 30° C. on a shaker, plates were centrifuged for 10 min at 2000 RPM. Supernatant was discarded and membrane bound radioactivity was measured on a PerkinElmer 1450 MicroBeta counter. Triplicate samples were averaged and expressed as % response relative to S1P activation in absence of compound (n=2).

T1 sequence (P21453 whole entry, species assumed): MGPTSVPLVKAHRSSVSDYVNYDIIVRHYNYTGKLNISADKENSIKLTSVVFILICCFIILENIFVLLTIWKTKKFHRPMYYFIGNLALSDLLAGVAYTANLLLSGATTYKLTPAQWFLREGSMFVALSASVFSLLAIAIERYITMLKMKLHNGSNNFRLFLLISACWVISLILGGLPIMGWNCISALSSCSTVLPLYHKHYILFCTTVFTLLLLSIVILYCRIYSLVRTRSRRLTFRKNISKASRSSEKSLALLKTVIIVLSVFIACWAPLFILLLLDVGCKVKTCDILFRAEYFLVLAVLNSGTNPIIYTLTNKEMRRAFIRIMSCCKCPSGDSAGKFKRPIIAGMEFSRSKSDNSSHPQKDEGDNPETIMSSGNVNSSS

| EC50 [nM] | SMILES |
| --- | --- |
| 513 | COCc1cc(-c2nc(-c3ccc(C(=O)O)c(F)c3)no2)ccc1-c1ccc(F)cc1C [Example 94, 2-fluoro-4-{5-[4′-fluoro-2-(methoxymethyl)-2′-methylbiphenyl-4-yl]-1,2,4-oxadiazol-3-yl}benzoic acid] |
| 2 | COCc1cc(-c2nc(-c3cccc(CNCCO)c3)no2)ccc1-c1ccccc1C [Example 187, 2-[(3-{5-[2-(methoxymethyl)-2′-methylbiphenyl-4-yl]-1,2,4-oxadiazol-3-yl}benzyl)amino]ethanol, Hydrochloride salt] |
| 10000 | CCCN(CC(C)C)c1ccc(-c2nc(-c3ccc(C(=O)O)c(F)c3)no2)cc1NS(C)(=O)=O [Example 66, 2-fluoro-4-(5-{4-[isobutyl(propyl)amino]-3-[(methylsulfonyl)amino]phenyl}-1,2,4-oxadiazol-3-yl)benzoic acid] |
| 246 | COCc1cc(-c2nc(-c3cc(Cl)c(C(=O)O)cc3OC)no2)ccc1-c1ccccc1C [Example 115, 2-chloro-5-methoxy-4-{5-[2-(methoxymethyl)-2′-methylbiphenyl-4-yl]-1,2,4-oxadiazol-3-yl}benzoic acid] |
| 5 | CCc1ccccc1-c1ccc(-c2nc(-c3ccc(OCCCC(=O)O)c(F)c3)no2)cc1COC [Example 162, 4-(4-{5-[2′-ethyl-2-(methoxymethyl)biphenyl-4-yl]-1,2,4-oxadiazol-3-yl}-2-fluorophenoxy)butanoic acid] |
| 2900 | CNCc1cc(-c2nc(-c3ccc(C(=O)O)c(F)c3)no2)ccc1-c1ccccc1C [Example 77, 2-fluoro-4-(5-{2′-methyl-2-[(methylamino)methyl]biphenyl-4-yl}-1,2,4-oxadiazol-3-yl)benzoic acid, Hydrochloride salt] |
| 481 | COC(=O)c1ccc(-c2noc(-c3ccc(N(C)C)c(NS(C)(=O)=O)c3)n2)cc1F [Example 71, methyl 4-(5-{4-(dimethylamino)-3-[(methylsulfonyl)amino]phenyl}-1,2,4-oxadiazol-3-yl)-2-fluorobenzoate] |

More lines, now with the values behind:

| SMILES | EC50 [nM] |
| --- | --- |
| COCC1CCCN1c1ncc(-c2nc(-c3ccc(S(N)(=O)=O)cc3)no2)cc1C (centres unmarked) [Example 41, 4-(5-{6-[2-(methoxymethyl)pyrrolidin-1-yl]-5-methylpyridin-3-yl}-1,2,4-oxadiazol-3-yl)benzenesulfonamide] | 1090 |
| CC1CCCCN1c1ccc(-c2nc(-c3ccc(F)c(C(=O)O)c3)no2)cc1C(F)(F)F (centres unmarked) [Example 33, 2-fluoro-5-{5-[4-(2-methylpiperidin-1-yl)-3-(trifluoromethyl)phenyl]-1,2,4-oxadiazol-3-yl}benzoic acid] | 180 |
| Cc1ccccc1-c1ccc(-c2nc(-c3ccc(S(N)(=O)=O)cc3)no2)cc1C [Example 40, 4-[5-(2,2′-dimethylbiphenyl-4-yl)-1,2,4-oxadiazol-3-yl]benzenesulfonamide] | 10 |
| O=C(O)c1ccc(-c2noc(-c3ccc(N4CCCCC4)c([N+](=O)[O-])c3)n2)cc1F [Example 14, 2-fluoro-4-[5-(3-nitro-4-piperidin-1-ylphenyl)-1,2,4-oxadiazol-3-yl]benzoic acid] | 5180 |
| CC(C)COc1ccc(-c2nc(-c3ccc(C(=O)O)c(F)c3)no2)cc1NS(C)(=O)=O [Example 64, 2-fluoro-4-(5-{4-isobutoxy-3-[(methylsulfonyl)amino]phenyl}-1,2,4-oxadiazol-3-yl)benzoic acid] | 4720 |
| Cc1cc(-c2nc(-c3ccc(C(=O)O)c(F)c3)no2)ccc1-c1ccccc1O [Example 32, 2-fluoro-4-[5-(2′-hydroxy-2-methylbiphenyl-4-yl)-1,2,4-oxadiazol-3-yl]benzoic acid] | 2920 |
| CC(C)COc1ncc(-c2nc(-c3ccc(OCC(=O)O)c(F)c3)no2)cc1Cl [Example 49, {4-[5-(5-chloro-6-isobutoxypyridin-3-yl)-1,2,4-oxadiazol-3-yl]-2-fluorophenoxy}acetic acid] | 1280 |
